Source: ChEMBL document CHEMBL4376803, “Recent Advances in the Exploration of Therapeutic Analogues of Gramicidin S, an Old but Still Potent Antimicrobial Peptide” (J Med Chem, 2019)
Converted amounts (≈) assume the structure as drawn. Square brackets hold non-standard residues; d marks the D form. Peptide text beside a SMILES is read from it. Orn = NCCC[C@H](N)C(=O)O

Key:
Erythrocyte [1] = assay: Haemolytic activity in human RBC after 4 hrs by visual method; type: ADME, cell-based
Lipopolysaccharide (LPS) = assay: Displacement of Dansyl-polymyxin from Pseudomonas aeruginosa LPS by fluorescence method; conditions: read-out: I50
[2] = Therapeutic index, ratio of HD100 for hemolytic activity in human RBC to MIC against Escherichia coli UB1005; type: toxicity; conditions: human red blood cells, read-out: TI
[3] = Therapeutic index, ratio of HD100 for hemolytic activity in human RBC to MIC against Pseudomonas aeruginosa H187; type: toxicity; conditions: human red blood cells, read-out: TI
[4] = Therapeutic index, ratio of HD100 for hemolytic activity in human RBC to MIC against Enterococcus faecalis ATCC 29212; type: toxicity; conditions: human red blood cells, read-out: TI
[5] = Therapeutic index, ratio of HD100 for hemolytic activity in human RBC to MIC against Staphylococcus aureus K147; type: toxicity; conditions: human red blood cells, read-out: TI
[6] = Therapeutic index, ratio of HD100 for hemolytic activity in human RBC to MIC against Candida albicans; type: toxicity; conditions: human red blood cells, read-out: TI
[7] = (§1) Haemolytic activity in human erythrocytes; type: ADME, cell-based, Erythrocyte; conditions: human erythrocytes
Erythrocyte [8] = assay: as §1; type: ADME, cell-based; conditions: erythrocyte
[9] = Therapeutic index, ratio of HD100 for hemolytic activity in human erythrocytes to MIC against Escherichia coli ATCC 25922; type: toxicity, cell-based; conditions: read-out: TI
[10] = Therapeutic index, ratio of HD100 for hemolytic activity in human erythrocytes to MIC against Pseudomonas aeruginosa ATCC 27853; type: toxicity, cell-based; conditions: read-out: TI
[11] = Therapeutic index, ratio of HD100 for hemolytic activity in human erythrocytes to MIC against Enterococcus faecalis ATCC 29212; type: toxicity, cell-based; conditions: read-out: TI
[12] = Therapeutic index, ratio of HD100 for hemolytic activity in human erythrocytes to MIC against Staphylococcus aureus ATCC 29213; type: toxicity, cell-based; conditions: read-out: TI
[13] = Therapeutic index, ratio of HD100 for hemolytic activity in human erythrocytes to MIC against methicillin-resistant Staphylococcus aureus ATCC 4330; type: toxicity, cell-based; conditions: read-out: TI
[14] = Hemolytic activity in sheep RBC incubated for 30 mins; type: ADME, cell-based, Ovis aries, Erythrocyte; conditions: sheep red blood cells
[15] = Haemolytic activity in human erythrocytes incubated for 30 mins; type: ADME, cell-based, Erythrocyte
[16] = (§2) Hemolytic activity against RBC (unknown origin) at 100 ul after 4 hrs; type: ADME, cell-based, Erythrocyte; conditions: red blood cells (unknown origin)
Erythrocyte [17] = assay: Haemolytic activity in human RBC after 30 mins by spectrophotometric analysis; type: ADME, cell-based; conditions: 0.5 h
[18] = Haemolytic activity in human erythrocytes at 100 ug/ml after 30 mins relative to control; type: ADME, cell-based, Erythrocyte; conditions: read-out: Activity
[19] = Hemolytic activity in sheep erythrocytes; type: ADME, cell-based, Ovis aries, Erythrocyte
[20] = Haemolytic activity in human RBC after 4 hrs; type: ADME, cell-based, Erythrocyte; conditions: human red blood cells
[21] = Haemolytic activity in human RBC incubated for 1 hr; type: ADME, cell-based, Erythrocyte; conditions: human red blood cells
[22] = Therapeutic index, ratio of HC90 for hemolytic activity in human erythrocytes to MIC against Escherichia coli ATCC 25922; type: toxicity, cell-based; conditions: read-out: TI
[23] = Therapeutic index, ratio of HC90 for hemolytic activity in human erythrocytes to MIC against Enterococcus faecalis ATCC 29212; type: toxicity, cell-based; conditions: read-out: TI
[24] = Therapeutic index, ratio of HC90 for hemolytic activity in human erythrocytes to MIC against Staphylococcus aureus ATCC 25923; type: toxicity, cell-based; conditions: read-out: TI
[25] = Therapeutic index, ratio of HC90 for hemolytic activity in human erythrocytes to MIC against Staphylococcus epidermidis ATCC 12228; type: toxicity, cell-based; conditions: read-out: TI
Erythrocyte [26] = assay: as §2; type: ADME, cell-based; conditions: erythrocyte, 4 h
Escherichia coli = assay: Antibacterial activity against Escherichia coli ATCC 25922 after overnight incubation; type: functional
Enterococcus faecalis = assay: Antibacterial activity against Enterococcus faecalis ATCC 29212 after overnight incubation; type: functional
Staphylococcus aureus = assay: Antibacterial activity against Staphylococcus aureus ATCC 29213 after overnight incubation; type: functional
Pseudomonas aeruginosa = assay: Antibacterial activity against Pseudomonas aeruginosa ATCC 27853 after overnight incubation; type: functional
[27] = test system: Staphylococcus epidermidis; assay: Antibacterial activity against Staphylococcus epidermidis ATCC 12228 after overnight incubation; type: functional
Bacillus cereus = assay: Antibacterial activity against Bacillus cereus ATCC 11778 after overnight incubation; type: functional

For CC(C)C[C@@H]1NC(=O)[C@H](CCCN)NC(=O)[C@H](C(C)C)NC(=O)[C@@H]2CCCN2C(=O)[C@@H](Cc2ccccc2)NC(=O)[C@H](CC(C)C)NC(=O)[C@H](CCCN)NC(=O)[C@H](C(C)C)NC(=O)[C@@H]2CCCN2C(=O)[C@@H](Cc2ccccc2)NC1=O (cyclo(L[dF]PV[Orn]L[dF]PV[Orn])), the HD100 (Erythrocyte [1]) was 12.5 µg/mL, the IC50 (Lipopolysaccharide (LPS)) was 295 µM and the selectivity ratio [2] was 2. The selectivity ratio [3] was 0.6, the selectivity ratio [4] was 4.5 and the selectivity ratio [5] was 8.3. The selectivity ratio [6] was 4, the HC50 [7] was 12 µg/mL and the Activity (Erythrocyte [8]) was 62.5 µg/mL. It also gave a selectivity ratio [9] of 2, a selectivity ratio [10] of 1 and a selectivity ratio [11] of 7.8. It also gave a selectivity ratio [12] of 15.6, a selectivity ratio [13] of 7.8 and an HC50 at 0.5 h [14] of 25 to 35 µg/mL. For the same compound, the HC50 at 0.5 h [15] was 5 to 10 µg/mL, the HC50 at 4 h [16] was 5 to 31.2 µg/mL and the HC90 (Erythrocyte [17]) was 12 µg/mL. The hemolysis at 0.5 h, 100 ug/ml [18] was 80%, the HC50 [19] was 25 to 35 µg/mL and the HC50 at 4 h [20] was 17.5 µg/mL. For the same compound, the HC50 at 1 h [21] was 14.3 µg/mL, the selectivity ratio [22] was 0.38 and the selectivity ratio [23] was 1.5. It also gave a selectivity ratio [24] of 3 and a selectivity ratio [25] of 6.
CC(C)C[C@@H]1NC(=O)[C@H](CCCN)NC(=O)[C@H](C(C)C)NC(=O)[C@@H]2CCCN2C(=O)[C@@H](Cc2ccccc2)NC(=O)[C@H](CC(C)C)NC(=O)[C@H](CCCN)NC(=O)[C@H](C(C)C)NC(=O)[C@H]2CC[C@H](OCc3ccccc3)[C@@H](CNC1=O)O2 showed an HD100 (Erythrocyte [26]) of 500 µg/mL.
With CC(C)C[C@@H]1NC(=O)[C@H](CCCN)NC(=O)[C@H](C(C)C)NC(=O)[C@@H]2CCCN2C(=O)[C@@H](Cc2ccccc2)NC(=O)[C@H](CC(C)C)NC(=O)[C@H](CCCN)NC(=O)[C@H](C(C)C)NC(=O)[C@@H]2O[C@H](CNC1=O)[C@@H](OCc1ccc3ccccc3c1)[C@@H]2O the MIC (Escherichia coli) was > 64 µg/mL, the MIC (Enterococcus faecalis) was 8 µg/mL (≈ 6.69 µM) and the MIC (Staphylococcus aureus) was 4 to 8 µg/mL (≈ 3.34 to 6.69 µM). The MIC (Pseudomonas aeruginosa) was > 64 µg/mL, the MIC [27] was 2 µg/mL (≈ 1.67 µM) and the MIC (Bacillus cereus) was 4 µg/mL (≈ 3.34 µM).
